# Test results from article PMC8717895 (Neuro-oncology Advances, 2021).
# Legend:
# [1] = CSF crenolanib disposition; format: in vivo, human; conditions: for CSF crenolanib concentration: stratum A2 patient
# [2] = tested on: human glioma xenograft (U87MG); conditions: after 9 days of dosing at 50 mg/kg BID, ref Crenolanib Investigator's Brochure, AROG Pharmaceuticals, LLC, 2011; cited from earlier work
smiles,measurement,setting,value
CC1(COc2ccc3c(c2)ncn3-c2ccc3cccc(N4CCC(N)CC4)c3n2)COC1 [crenolanib],Kp,"[1]; human, cerebrospinal fluid / serum (total), oral, 100 mg/m^2",0.025
same,serum crenolanib concentration,"[1]; simultaneous with day 28 CSF sampling, third cycle",546 nM
same,CSF crenolanib concentration,"[1]; third cycle day 14, approximately 19 h after dose",9.15 nM
same,CSF crenolanib concentration,"[1]; third cycle day 28, approximately 19 h after dose",13.6 nM
same,inhibition of xenograft growth,[2],47%
